# Measured values from ChEMBL document CHEMBL5725788, “Tricyclic heterocyclic compounds as phosphoinositide 3-kinase inhibitors” (2017).
# Legend:
# [1] = molecular target: Phosphatidylinositol 4,5-bisphosphate 3-kinase catalytic subunit beta isoform (Homo sapiens, UniProt P42338); assay: (§1) Biochemical Assay: PI3K Isoform using biochemical assay.
# [2] = molecular target: Phosphatidylinositol 4,5-bisphosphate 3-kinase catalytic subunit alpha isoform (Homo sapiens, UniProt P42336); assay: as §1
# Sequence of Phosphatidylinositol 4,5-bisphosphate 3-kinase catalytic subunit alpha isoform (P42336 whole entry, canonical isoform): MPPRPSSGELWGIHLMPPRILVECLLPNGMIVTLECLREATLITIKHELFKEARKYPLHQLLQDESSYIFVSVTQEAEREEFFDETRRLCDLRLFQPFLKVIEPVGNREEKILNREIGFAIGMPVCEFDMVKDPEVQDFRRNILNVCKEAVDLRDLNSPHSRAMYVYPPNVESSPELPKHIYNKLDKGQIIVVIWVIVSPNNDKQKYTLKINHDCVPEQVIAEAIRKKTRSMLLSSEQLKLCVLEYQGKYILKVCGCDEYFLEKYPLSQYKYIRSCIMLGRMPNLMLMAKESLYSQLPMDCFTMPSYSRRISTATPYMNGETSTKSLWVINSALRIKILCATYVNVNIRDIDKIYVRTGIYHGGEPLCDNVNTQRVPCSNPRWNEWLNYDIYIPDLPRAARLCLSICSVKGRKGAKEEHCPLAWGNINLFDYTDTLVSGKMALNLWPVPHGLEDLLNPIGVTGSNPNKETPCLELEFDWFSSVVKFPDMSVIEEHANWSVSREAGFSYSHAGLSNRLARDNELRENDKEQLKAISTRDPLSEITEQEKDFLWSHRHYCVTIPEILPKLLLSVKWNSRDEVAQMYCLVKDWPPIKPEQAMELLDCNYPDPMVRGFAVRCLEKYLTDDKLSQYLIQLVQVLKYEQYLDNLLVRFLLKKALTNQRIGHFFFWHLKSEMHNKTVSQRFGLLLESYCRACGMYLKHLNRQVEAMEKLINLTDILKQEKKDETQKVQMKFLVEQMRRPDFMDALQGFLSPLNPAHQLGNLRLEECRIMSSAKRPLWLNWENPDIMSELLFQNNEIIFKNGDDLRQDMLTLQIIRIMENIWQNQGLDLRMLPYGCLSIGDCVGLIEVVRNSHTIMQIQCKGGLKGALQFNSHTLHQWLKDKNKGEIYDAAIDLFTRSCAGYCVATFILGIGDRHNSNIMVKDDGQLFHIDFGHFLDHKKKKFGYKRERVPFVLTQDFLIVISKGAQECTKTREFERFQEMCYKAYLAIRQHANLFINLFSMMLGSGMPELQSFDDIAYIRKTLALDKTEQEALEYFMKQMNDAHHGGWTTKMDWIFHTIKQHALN
# [3] = molecular target: Phosphatidylinositol 4,5-bisphosphate 3-kinase catalytic subunit gamma isoform (Homo sapiens, UniProt P48736); assay: as §1
# Sequence of Phosphatidylinositol 4,5-bisphosphate 3-kinase catalytic subunit gamma isoform (P48736 whole entry, canonical isoform): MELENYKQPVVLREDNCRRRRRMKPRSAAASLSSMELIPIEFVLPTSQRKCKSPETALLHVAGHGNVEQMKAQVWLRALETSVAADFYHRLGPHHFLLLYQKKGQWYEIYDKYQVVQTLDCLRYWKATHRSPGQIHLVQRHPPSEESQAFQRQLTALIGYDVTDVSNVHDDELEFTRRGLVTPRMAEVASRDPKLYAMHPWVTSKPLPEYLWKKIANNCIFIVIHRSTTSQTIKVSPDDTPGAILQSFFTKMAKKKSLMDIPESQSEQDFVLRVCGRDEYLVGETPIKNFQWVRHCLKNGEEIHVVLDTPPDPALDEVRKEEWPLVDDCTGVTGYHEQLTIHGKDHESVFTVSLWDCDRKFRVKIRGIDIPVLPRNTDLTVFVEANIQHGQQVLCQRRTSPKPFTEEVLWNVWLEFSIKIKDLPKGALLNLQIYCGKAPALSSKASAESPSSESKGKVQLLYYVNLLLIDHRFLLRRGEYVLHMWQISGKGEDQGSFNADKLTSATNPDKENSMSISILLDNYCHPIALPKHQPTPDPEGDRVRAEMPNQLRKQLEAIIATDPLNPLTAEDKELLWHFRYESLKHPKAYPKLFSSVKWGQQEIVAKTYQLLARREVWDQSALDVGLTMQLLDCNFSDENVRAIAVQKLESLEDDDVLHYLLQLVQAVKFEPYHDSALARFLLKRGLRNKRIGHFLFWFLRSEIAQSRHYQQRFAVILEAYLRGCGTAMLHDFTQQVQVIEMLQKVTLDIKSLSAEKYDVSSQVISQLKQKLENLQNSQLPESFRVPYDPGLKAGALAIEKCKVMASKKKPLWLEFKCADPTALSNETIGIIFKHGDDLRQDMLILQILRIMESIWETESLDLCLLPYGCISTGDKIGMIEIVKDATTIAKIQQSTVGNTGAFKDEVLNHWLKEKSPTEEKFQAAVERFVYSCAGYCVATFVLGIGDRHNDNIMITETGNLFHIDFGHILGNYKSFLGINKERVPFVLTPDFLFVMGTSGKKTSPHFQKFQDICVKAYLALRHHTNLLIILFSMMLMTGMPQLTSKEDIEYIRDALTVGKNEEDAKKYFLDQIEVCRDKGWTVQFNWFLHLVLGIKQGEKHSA
# [4] = molecular target: T1, Phosphatidylinositol 4,5-bisphosphate 3-kinase catalytic subunit delta isoform (Homo sapiens, UniProt O00329); assay: as §1
# T1 sequence (O00329 whole entry): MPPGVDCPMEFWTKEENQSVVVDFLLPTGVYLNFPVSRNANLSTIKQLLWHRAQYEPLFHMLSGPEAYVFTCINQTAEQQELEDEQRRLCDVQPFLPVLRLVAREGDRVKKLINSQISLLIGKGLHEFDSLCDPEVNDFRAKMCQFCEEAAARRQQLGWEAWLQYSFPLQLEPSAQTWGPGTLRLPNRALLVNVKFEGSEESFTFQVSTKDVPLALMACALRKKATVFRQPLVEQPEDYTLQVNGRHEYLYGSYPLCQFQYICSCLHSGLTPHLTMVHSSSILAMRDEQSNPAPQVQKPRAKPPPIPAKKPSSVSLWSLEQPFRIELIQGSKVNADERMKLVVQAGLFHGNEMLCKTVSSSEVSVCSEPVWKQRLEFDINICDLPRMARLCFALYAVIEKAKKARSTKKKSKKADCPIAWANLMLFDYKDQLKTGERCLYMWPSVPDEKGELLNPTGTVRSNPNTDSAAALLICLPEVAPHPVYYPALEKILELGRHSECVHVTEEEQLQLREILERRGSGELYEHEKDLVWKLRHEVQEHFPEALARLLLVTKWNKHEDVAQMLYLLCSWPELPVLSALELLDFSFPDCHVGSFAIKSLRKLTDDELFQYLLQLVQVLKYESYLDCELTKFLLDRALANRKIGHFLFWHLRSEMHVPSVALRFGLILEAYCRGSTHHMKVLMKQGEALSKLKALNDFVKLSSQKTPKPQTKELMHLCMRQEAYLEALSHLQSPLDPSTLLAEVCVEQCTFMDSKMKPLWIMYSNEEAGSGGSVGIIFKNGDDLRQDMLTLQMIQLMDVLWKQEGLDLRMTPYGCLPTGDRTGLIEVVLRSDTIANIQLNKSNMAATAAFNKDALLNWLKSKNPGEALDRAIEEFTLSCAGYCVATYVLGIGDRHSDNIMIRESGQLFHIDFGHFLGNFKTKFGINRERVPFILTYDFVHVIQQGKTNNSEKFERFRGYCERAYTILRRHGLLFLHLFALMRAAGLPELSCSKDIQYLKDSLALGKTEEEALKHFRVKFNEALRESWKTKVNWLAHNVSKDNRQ
# Sequence of Phosphatidylinositol 4,5-bisphosphate 3-kinase catalytic subunit beta isoform (P42338 whole entry, canonical isoform): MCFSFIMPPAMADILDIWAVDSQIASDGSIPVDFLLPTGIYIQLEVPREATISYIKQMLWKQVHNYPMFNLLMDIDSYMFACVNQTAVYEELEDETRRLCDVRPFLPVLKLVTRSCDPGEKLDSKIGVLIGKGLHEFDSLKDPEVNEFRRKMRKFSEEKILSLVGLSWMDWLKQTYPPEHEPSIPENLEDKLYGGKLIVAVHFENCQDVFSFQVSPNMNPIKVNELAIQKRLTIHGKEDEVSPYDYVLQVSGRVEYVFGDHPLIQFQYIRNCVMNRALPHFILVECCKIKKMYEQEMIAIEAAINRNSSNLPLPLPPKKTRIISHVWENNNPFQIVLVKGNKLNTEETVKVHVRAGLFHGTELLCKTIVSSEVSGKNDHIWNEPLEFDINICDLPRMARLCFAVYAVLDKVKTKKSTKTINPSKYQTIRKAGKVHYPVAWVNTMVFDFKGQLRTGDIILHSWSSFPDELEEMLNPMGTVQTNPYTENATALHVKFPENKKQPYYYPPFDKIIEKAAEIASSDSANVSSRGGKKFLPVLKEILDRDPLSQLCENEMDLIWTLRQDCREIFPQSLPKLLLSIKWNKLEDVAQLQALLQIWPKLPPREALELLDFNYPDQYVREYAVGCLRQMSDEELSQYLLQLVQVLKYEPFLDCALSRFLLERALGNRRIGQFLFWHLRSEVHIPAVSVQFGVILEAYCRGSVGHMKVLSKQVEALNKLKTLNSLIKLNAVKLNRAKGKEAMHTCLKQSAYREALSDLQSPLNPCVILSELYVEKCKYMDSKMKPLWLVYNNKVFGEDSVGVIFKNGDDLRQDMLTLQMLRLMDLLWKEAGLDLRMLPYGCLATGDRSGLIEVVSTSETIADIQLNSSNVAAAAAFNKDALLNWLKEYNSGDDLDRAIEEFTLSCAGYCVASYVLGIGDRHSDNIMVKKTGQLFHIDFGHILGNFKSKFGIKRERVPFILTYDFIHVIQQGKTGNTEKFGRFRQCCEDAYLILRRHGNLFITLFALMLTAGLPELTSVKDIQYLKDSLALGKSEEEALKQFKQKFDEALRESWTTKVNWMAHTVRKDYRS
structure (smiles),measurement,setting,value
c1cc(-c2nc(N3CCOCC3)c3oc4ncc(CN5CCCCC5)cc4c3n2)c2cc[nH]c2c1,IC50,[1],503 nM
same,IC50,[2],508 nM
same,IC50,[3],4950 nM
same,IC50,[4],10 nM
